In patent US20130035326A1 (AMBIT BIOSCIENCES CORPORATION, priority 2009, published 2013):

Assays:
FLT3 kinase = molecular target: T1, FLT3 kinase (Homo sapiens, UniProt P36888); assay: Competition binding assay, FLT3 Kd
T1 construct: made in house; host or cells: T7 phage display or HEK-293 cells
T1 sequence (P36888 27-993): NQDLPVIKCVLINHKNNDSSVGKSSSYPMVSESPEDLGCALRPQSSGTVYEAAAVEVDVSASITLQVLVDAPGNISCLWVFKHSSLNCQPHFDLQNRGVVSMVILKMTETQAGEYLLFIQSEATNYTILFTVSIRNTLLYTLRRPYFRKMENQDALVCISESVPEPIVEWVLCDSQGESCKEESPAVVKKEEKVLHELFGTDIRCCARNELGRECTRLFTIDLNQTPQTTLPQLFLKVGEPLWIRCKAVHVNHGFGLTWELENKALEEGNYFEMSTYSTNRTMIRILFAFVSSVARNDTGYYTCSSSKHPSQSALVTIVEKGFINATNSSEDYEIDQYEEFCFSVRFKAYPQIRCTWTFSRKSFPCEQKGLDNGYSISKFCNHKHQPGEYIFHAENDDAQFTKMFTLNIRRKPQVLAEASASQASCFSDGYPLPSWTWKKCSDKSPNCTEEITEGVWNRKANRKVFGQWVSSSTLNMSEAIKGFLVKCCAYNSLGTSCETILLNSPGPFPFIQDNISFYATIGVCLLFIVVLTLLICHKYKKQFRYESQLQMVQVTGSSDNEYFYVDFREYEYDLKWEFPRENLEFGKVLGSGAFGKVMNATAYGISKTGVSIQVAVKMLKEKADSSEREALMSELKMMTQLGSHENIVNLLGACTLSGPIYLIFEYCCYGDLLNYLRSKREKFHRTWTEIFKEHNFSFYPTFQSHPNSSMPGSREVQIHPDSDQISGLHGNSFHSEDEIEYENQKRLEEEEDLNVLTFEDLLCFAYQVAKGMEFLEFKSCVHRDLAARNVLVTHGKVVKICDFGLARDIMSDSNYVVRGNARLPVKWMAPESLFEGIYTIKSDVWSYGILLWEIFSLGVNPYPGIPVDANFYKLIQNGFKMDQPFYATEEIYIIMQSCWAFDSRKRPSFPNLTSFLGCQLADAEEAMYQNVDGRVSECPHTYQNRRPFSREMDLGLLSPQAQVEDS
Procedure, shortened: (§1)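 Kd values derived from an eleven-point, threefold compound dilution series in a bead-based competition format: kinase (phage-fused or HEK-293-derived with DNA tag), ligand-coated streptavidin beads and compound equilibrated 1 h at room temperature. After washing, retained kinase was eluted with non-biotinylated ligand (0.5 μM) and measured by quantitative PCR.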

KIT kinase = molecular target: T2, KIT kinase (Homo sapiens, UniProt P10721); assay: Competition binding assay, KIT Kd
T2 construct: made in house; host or cells: T7 phage display or HEK-293 cells
Procedure, shortened: as §1

CSF-1R kinase = molecular target: T3, CSF-1R kinase (Homo sapiens, UniProt P07333); assay: Competition binding assay, CSF-1R Kd
T3 construct: made in house; host or cells: T7 phage display or HEK-293 cells
Procedure, shortened: as §1

MV4-11 cells = assay: MV4-11 cell proliferation assay (Alamar Blue); assay type: cell-based; conditions: 3 days incubation
Procedure, shortened: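 Flt3-ITD MV4-11 cells were serum-starved overnight in Iscove's with 0.5% FBS, then given compound at 9 half-log concentrations (0.5% DMSO) for 3 days at 37° C. Alamar Blue reduction was read after 3 h by fluorescence (560/590 nm). IC50 is the mean of duplicates versus negative control.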

[1] = molecular target: kinase panel containing either 359 or 386 distinct kinases; assay: Selectivity score S10 from competition binding against a panel of kinases; conditions: compounds at 10 μM; for Kinase specificty: S(10)-386 panel: panel of 386 distinct kinases; for Kinase specificty: S(10)-359 panel: panel of 359 distinct kinases
Procedure: Competition binding assays used herein were developed, validated and performed as described in Fabian et al., Nature Biotechnology 2005, 23,329-336. Kinases were produced as fusions to T7 phage (See, Fabian et al. or WO04/015142) or alternatively, the kinases were expressed in HEK-293 cells and subsequently tagged with DNA for PCR detection (See, WO08/005,310). For the binding assays, streptavidin-coated magnetic beads were treated with biotinylated affinity ligands for 30 min at room temperature to generate affinity resins. The liganded beads were blocked with excess biotin and washed with blocking buffer (SeaBlock (Pierce), 1% BSA, 0.05% Tween 20, 1 mM DTT) to remove unbound ligand and to reduce non-specific binding. Binding reactions were assembled by combining kinase, liganded affinity beads, and test compounds in 1× binding buffer (20% SeaBlock, 0.17×PBS, 0.05% Tween 20, 6 mM DTT). Test compounds were prepared as 100× stocks in DMSO and diluted into the aqueous environment. Kds were determined using an eleven point threefold serial dilutions. DMSO or control compounds were was added to control assays lacking a test compound. Primary screen assays were performed in polypropylene 384-well plates in a final volume of 20-40 μL, while Kd determinations were performed in polystyrene 96-well plates in a final volume of 135 μL. The assay plates were incubated at room temperature with shaking for 1 hour to allow the binding reactions to reach equilibrium, and the affinity beads were washed extensively with wash buffer (1×PBS, 0.05% Tween 20) to remove unbound protein. The beads were then resuspended in elution buffer (1×PBS, 0.05% Tween 20, 0.5 μM non-biotinylated affinity ligand) and incubated at room temperature with shaking for 30 min. The kinase concentration in the eluates was measured by quantitative PCR.
A selectivity score (S10) is a quantitative measure of selectivity of a compound against a panel of kinases. An S10 was calculated for a compound by dividing the number of kinases found to have a percent of control (DMSO) less than 10 by the total number of distinct kinases tested (excluding mutant variants). Percent of control (POC) is calculated by subtracting the signal of the control compound (POC=0) from the signal of the test compound and dividing the outcome by the signal of DMSO (POC=100) minus the signal of the control compound. For the compounds disclosed herein, S10 scores were obtained by testing the compounds at 10 μM concentration in a kinase panel containing either 359 or 386 distinct kinases.

T3 sequence (P07333 20-972): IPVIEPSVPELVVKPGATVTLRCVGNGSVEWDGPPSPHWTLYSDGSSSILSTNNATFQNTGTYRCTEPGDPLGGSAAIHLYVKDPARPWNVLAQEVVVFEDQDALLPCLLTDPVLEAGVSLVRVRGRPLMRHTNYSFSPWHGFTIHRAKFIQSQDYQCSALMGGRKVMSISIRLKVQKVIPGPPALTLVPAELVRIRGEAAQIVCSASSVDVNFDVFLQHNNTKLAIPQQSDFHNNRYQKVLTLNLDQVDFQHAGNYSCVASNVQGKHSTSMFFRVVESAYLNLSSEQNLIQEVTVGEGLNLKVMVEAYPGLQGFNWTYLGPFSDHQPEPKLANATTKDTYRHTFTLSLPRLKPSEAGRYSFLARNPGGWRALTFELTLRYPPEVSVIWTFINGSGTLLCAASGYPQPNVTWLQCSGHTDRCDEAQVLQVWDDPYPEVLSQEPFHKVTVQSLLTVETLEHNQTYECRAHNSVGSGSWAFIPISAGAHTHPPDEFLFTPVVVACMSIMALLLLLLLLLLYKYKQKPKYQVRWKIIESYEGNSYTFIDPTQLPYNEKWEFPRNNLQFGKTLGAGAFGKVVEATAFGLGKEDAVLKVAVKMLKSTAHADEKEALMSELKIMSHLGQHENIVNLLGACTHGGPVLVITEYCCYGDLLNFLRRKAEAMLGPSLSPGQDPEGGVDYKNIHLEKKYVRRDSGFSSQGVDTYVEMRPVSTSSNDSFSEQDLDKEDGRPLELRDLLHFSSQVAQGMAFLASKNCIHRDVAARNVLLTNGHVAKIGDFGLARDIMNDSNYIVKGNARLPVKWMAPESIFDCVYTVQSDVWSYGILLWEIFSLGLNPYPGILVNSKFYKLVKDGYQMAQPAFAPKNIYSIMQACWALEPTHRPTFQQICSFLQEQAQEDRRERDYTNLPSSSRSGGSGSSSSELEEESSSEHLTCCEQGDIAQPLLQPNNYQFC
T2 sequence (P10721 26-976): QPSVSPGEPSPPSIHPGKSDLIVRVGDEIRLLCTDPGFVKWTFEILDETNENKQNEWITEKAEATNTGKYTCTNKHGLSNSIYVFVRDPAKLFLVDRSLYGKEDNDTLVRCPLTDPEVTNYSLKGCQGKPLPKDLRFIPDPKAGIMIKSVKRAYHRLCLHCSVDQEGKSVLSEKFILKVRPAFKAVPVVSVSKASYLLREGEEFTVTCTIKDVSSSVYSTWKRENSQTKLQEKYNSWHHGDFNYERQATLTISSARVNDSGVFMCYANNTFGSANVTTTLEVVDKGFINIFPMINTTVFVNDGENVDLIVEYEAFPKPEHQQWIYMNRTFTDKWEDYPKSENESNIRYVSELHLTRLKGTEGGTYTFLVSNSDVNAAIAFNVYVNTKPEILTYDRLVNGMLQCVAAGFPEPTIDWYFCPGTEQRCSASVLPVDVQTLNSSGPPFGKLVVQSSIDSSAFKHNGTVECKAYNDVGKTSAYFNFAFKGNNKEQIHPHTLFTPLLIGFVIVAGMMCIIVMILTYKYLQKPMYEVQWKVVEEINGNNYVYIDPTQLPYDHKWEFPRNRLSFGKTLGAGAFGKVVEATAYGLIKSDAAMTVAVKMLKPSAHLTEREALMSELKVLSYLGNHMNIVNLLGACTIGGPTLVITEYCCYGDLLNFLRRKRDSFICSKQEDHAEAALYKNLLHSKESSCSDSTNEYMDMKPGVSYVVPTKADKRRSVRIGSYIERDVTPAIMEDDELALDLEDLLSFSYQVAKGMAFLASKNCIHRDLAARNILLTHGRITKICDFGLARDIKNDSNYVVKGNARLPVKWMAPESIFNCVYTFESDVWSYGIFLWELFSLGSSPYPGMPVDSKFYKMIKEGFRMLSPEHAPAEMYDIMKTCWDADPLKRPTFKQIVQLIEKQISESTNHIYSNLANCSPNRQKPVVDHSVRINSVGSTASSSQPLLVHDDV

| Compound | Kd (FLT3 kinase) | Kd (KIT kinase) | Kd (CSF-1R kinase) | IC50 (MV4-11 cells) | Kinase specificty: S(10)-386 panel [1] | IC50 (MV4-11 cells; Homo sapiens, MV4-11, 72 h) | Kinase specificty: S(10)-359 panel [1] |
| --- | --- | --- | --- | --- | --- | --- | --- |
| 2-(4-(6-aminopyridin-3-yl)phenyl)-N-(3-tert-butyl-1H-pyrazol-1-yl)acetamide and 2-(4-(6-aminopyridin-3-yl)phenyl)-N-(5-tert-butyl-1H-pyrazol-1-yl)acetamide [Example 91] | ≤ 1 nM | 1 to 10 nM | 10 to 100 nM | 1 to 10 nM | A (A≦0.1) | – | – |
| CC(C)(C)c1cc(NC(=O)Nc2ccc(-c3ccc(N)nc3)cc2)no1 [Example 1, 1-(4-(6-aminopyridin-3-yl)phenyl)-3-(5-tert-butylisoxazol-3-yl)urea] | ≤ 1 nM | ≤ 1 nM | ≤ 10 nM | – | A (A≦0.1) | ≤ 1 nM | A (A≦0.1) |
| CC(C)(C)c1cc(NC(=O)Nc2ccc(-c3cnc(N)c(C#N)c3)cc2)no1 [Example 2, 1-[4-(6-amino-5-cyanopyridin-3-yl)-phenyl]-3-(5-tert-butylisoxazol-3-yl)urea] | ≤ 1 nM | 1 to 10 nM | ≤ 10 nM | – | – | ≤ 1 nM | B (0.1<B≦0.2 nM) |
| CC(C)(C)c1cc(NC(=O)Nc2ccc(-c3cnc4c(c3)OCC(=O)N4)cc2)no1 [Example 3, 1-(5-tert-butylisoxazol-3-yl)-3-(4-(3-oxo-3,4-dihydro-2H-pyrido[3,2-b][1,4]oxazin-7-yl)phenyl)urea] | ≤ 1 nM | ≤ 1 nM | ≤ 10 nM | – | – | ≤ 1 nM | A (A≦0.1) |
| CC(C)(C)c1cc(NC(=O)Nc2ccc(-c3cnc4c(c3)OCCN4)cc2)no1 [Example 4, 1-(5-tert-butylisoxazol-3-yl)-3-(4-(3,4-dihydro-2H-pyrido[3,2-b][1,4]oxazin-7-yl)phenyl)urea] | 1 to 10 nM | 1 to 10 nM | ≤ 10 nM | – | – | 1 to 10 nM | B (0.1<B≦0.2 nM) |
| CC(C)(C)c1cc(NC(=O)Nc2ccc(-c3cnc(NCCN4CCOCC4)nc3)cc2)no1 [Example 45, 1-(5-tert-butylisoxazol-3-yl)-3-{4-[2-(2-morpholin-4-yl-ethylamino)-pyrimidin-5-yl]phenyl}urea] | ≤ 1 nM | ≤ 1 nM | ≤ 10 nM | – | – | – | B (0.1<B≦0.2 nM) |
| COc1cc(-c2cnc(N)nc2)ccc1NC(=O)Nc1cc(C(C)(C)C)on1 [Example 48, 1-[4-(2-aminopyrimidin-5-yl)-2-methoxy-phenyl]-3-(5-tert-butylisoxazol-3-yl)-urea] | 1 to 10 nM | 1 to 10 nM | ≤ 10 nM | – | – | – | A (A≦0.1) |
| CC(C)(C)c1cc(NC(=O)Nc2ccc(-c3cnc(CN4CCOCC4)nc3)cc2)no1 [Example 51, 1-(5-tert-butylisoxazol-3-yl)-3-(4-(2-(morpholinomethyl)pyrimidin-5-yl)phenyl)urea] | 10 to 100 nM | 1 to 10 nM | 100 to 500 nM | – | – | – | A (A≦0.1) |
| CS(=O)(=O)O.Nc1ncc(-c2ccc(CC(=O)Nc3cc(C4(C(F)(F)F)CC4)on3)cc2)cc1F [Example 127] | – | – | – | – | B (0.1<B≦0.2 nM) | – | – |
| CC(C)(C)c1cc(NC(=O)Cc2ccc(-c3ccc(N)nc3C(F)(F)F)cc2)no1.CS(=O)(=O)O [Example 129] | – | – | – | – | A (A≦0.1) | – | – |
| CS(=O)(=O)O.Cc1cc(-c2ccc(CC(=O)Nc3cc(C4(C(F)(F)F)CC4)on3)cc2)cnc1N [Example 130] | – | – | – | – | A (A≦0.1) | – | – |
| CC(C)(C)c1cc(NC(=O)Cc2ccc(-c3ccc(N)nc3)c(C(F)(F)F)c2)no1 [Example 180] | 10 to 100 nM | > 100 nM | > 100 nM | – | – | > 100 nM | – |
| Cn1[nH]c2ncc(-c3ccc(CC(=O)Nc4cc(C(C)(C)C)on4)cc3)cc2c1=O [Example 181] | 1 to 10 nM | 10 to 100 nM | 10 to 100 nM | – | – | 1 to 10 nM | – |
| CC(C)(C)c1cc(NC(=O)C(O)c2ccc(-c3ccc(N)nc3)cc2)no1 (stereo not shown) [Example 182] | 1 to 10 nM | 1 to 10 nM | 10 to 100 nM | – | – | 1 to 10 nM | – |
| CC(C)(C)c1cc(NC(=O)Cc2ccc(-c3cnc(N)cc3F)cc2)on1 [Example 183] | ≤ 1 nM | 1 to 10 nM | ≤ 10 nM | – | – | ≤ 1 nM | – |
| CC(F)(F)C1(c2cc(NC(=O)Cc3ccc(-c4cnc(N)cc4F)cc3)no2)CC1 [Example 184] | ≤ 1 nM | 1 to 10 nM | ≤ 10 nM | – | – | ≤ 1 nM | – |
| CC1(c2cc(NC(=O)Cc3ccc(-c4ccc(NCCS(C)(=O)=O)nc4)cc3)no2)CC1 [Example 185] | ≤ 1 nM | ≤ 1 nM | ≤ 10 nM | – | – | 1 to 10 nM | – |
| CC(C)c1cc(NC(=O)Cc2ccc(-c3ccc(N)nc3)cc2)no1 [Example 186] | ≤ 1 nM | ≤ 1 nM | ≤ 10 nM | – | – | ≤ 1 nM | – |
| CN1CC(=O)Nc2ncc(-c3ccc(CC(=O)Nc4cc(C(C)(C)C)on4)cc3)cc2C1 [Example 190] | 1 to 10 nM | 1 to 10 nM | 100 to 500 nM | – | – | 10 to 100 nM | – |
